US20260250318A1, “COMPOSITIONS AND METHODS FOR CROSSING THE BLOOD BRAIN BARRIER” (VOYAGER THERAPEUTICS, INC., priority 2022, published 2026)

What was measured:
[1] = system: brains, heart, liver, muscle, and DRG of the NHPs; test: Maturation of TTM-001 and TTM-002 capsids, NGS enrichment in NHP tissues; assay type: in vivo; details: relative to AAV9 control
Summary of the method: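 Variants carry mutations within and flanking the loop IV peptide insert: positions 450–466 were triplet-randomized, while positions 449–466 received low-frequency point mutations. The combined pool went into two NHPs, and each peptide was scored by NGS enrichment ratio against AAV9.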

brain = test: Matured TTM-001 and TTM-002 variants, NGS enrichment in mouse brain; assay type: in vivo, mice; details: relative to AAV9 control
[2] = NGS fold-enrichment of matured AAV capsid variants, NHP brain, RNA
[3] = NGS fold-enrichment of RNA, NHP brain
[4] = NGS fold-enrichment, DRG of NHPs
[5] = NGS fold-enrichment, NHP liver DNA
[6] = NGS fold-enrichment, NHP liver RNA
[7] = NGS fold-enrichment, NHP muscle
[8] = NGS fold-enrichment, RNA, brain of NHPs
[9] = NGS fold-enrichment, heart of NHPs
[10] = NGS fold-enrichment, liver DNA of NHPs
[11] = NGS fold-enrichment, liver RNA of NHPs
[12] = NGS fold-enrichment, muscle of NHPs
[13] = NGS fold-enrichment, brain of mice
[14] = NGS fold-enrichment, mouse brain

Sequence | Fold Enrichment relative to AAV9, Brain (NHP) [1, 2] | Fold Enrichment relative to AAV9, DRG (NHP) ([1]; NHP DRG) | Fold Enrichment relative to AAV9, Heart (NHP) ([1]; NHP heart) | Fold Enrichment relative to AAV9, Liver DNA (NHP) ([1]; NHP liver, DNA) | Fold Enrichment relative to AAV9, Liver RNA (NHP) ([1]; NHP liver, RNA) | Fold Enrichment relative to AAV9, Muscle (NHP) ([1]; NHP muscle) | Fold Enrichment relative to AAV9, Brain (Mouse) (brain; mouse brain) | Fold Enrichment relative to AAV9, DRG (NHP) [1, 4] | Fold Enrichment relative to AAV9, Brain (NHP) [1, 8] | Fold Enrichment relative to AAV9, Heart (NHP) [1, 9] | Fold Enrichment relative to AAV9, Liver DNA (NHP) [1, 10] | Fold Enrichment relative to AAV9, Liver RNA (NHP) [1, 11] | Fold Enrichment relative to AAV9, Muscle (NHP) [1, 12] | Fold Enrichment relative to AAV9, Brain (Mouse) (brain; [13]) | other results
KTINGSGSPHSKAQFMCT | 55.916 fold | 0.000 fold | 0.000 fold | 0.448 fold | 0.078 fold | 0.000 fold | 81.959 fold | – | – | – | – | – | – | – | –
KTINGSGSPHSKAQFPST | – | – | – | – | – | – | – | 0.000 fold | 75.677 fold | 0.004 fold | 0.127 fold | 0.849 fold | 0.000 fold | 119.712 fold | Fold Enrichment relative to AAV9, Brain (NHP) [1, 3]: 75.677 fold; Fold Enrichment relative to AAV9, DRG (NHP) ([1]; NGS fold-enrichment, NHP DRG): 0.000 fold; Fold Enrichment relative to AAV9, Heart (NHP) ([1]; NGS fold-enrichment, NHP heart): 0.004 fold; Fold Enrichment relative to AAV9, Liver DNA (NHP) [1, 5]: 0.127 fold; Fold Enrichment relative to AAV9, Liver RNA (NHP) [1, 6]: 0.849 fold; Fold Enrichment relative to AAV9, Muscle (NHP) [1, 7]: 0.000 fold; Fold Enrichment relative to AAV9, Brain (Mouse) (brain; [14]): 119.712 fold
KTINGSGSPHSKAQGAIT | 57.627 fold | 0.000 fold | 0.000 fold | 0.161 fold | 0.594 fold | 0.000 fold | 95.696 fold | – | – | – | – | – | – | – | –
KTINGSGSPHSKAQGHHT | 56.559 fold | 0.000 fold | 0.000 fold | 0.117 fold | 0.632 fold | 0.000 fold | 71.050 fold | – | – | – | – | – | – | – | –
KTINGSGSPHSKAQGILT | 58.418 fold | 0.000 fold | 0.005 fold | 0.192 fold | 0.569 fold | 0.010 fold | 102.631 fold | – | – | – | – | – | – | – | –
KTINGSGSPHSKAQGIRT | – | – | – | – | – | – | – | 0.041 fold | 61.952 fold | 0.000 fold | 0.502 fold | 0.897 fold | 0.012 fold | 155.013 fold | –
KTINGSGSPHSKAQGQQA | – | – | – | – | – | – | – | 0.000 fold | 64.128 fold | 0.185 fold | 0.195 fold | 0.063 fold | 0.000 fold | 64.116 fold | –
KTINGSGSPHSKAQGSLT | 54.717 fold | 0.000 fold | 0.006 fold | 0.298 fold | 0.480 fold | 0.013 fold | 142.786 fold | – | – | – | – | – | – | – | –
KTINGSGSPHSKAQHGLT | 55.999 fold | 0.000 fold | 0.000 fold | 0.244 fold | 1.913 fold | 0.101 fold | 117.191 fold | – | – | – | – | – | – | – | –
KTINGSGSPHSKAQHPST | – | – | – | – | – | – | – | 0.000 fold | 62.255 fold | 0.044 fold | 0.301 fold | 1.345 fold | 0.000 fold | 101.103 fold | –
KTINGSGSPHSKAQHRIT | – | – | – | – | – | – | – | 0.105 fold | 76.849 fold | 0.499 fold | 0.214 fold | 1.424 fold | 0.170 fold | 127.000 fold | Fold Enrichment relative to AAV9, Brain (NHP) [1, 3]: 76.849 fold; Fold Enrichment relative to AAV9, DRG (NHP) ([1]; NGS fold-enrichment, NHP DRG): 0.105 fold; Fold Enrichment relative to AAV9, Heart (NHP) ([1]; NGS fold-enrichment, NHP heart): 0.499 fold; Fold Enrichment relative to AAV9, Liver DNA (NHP) [1, 5]: 0.214 fold; Fold Enrichment relative to AAV9, Liver RNA (NHP) [1, 6]: 1.424 fold; Fold Enrichment relative to AAV9, Muscle (NHP) [1, 7]: 0.170 fold; Fold Enrichment relative to AAV9, Brain (Mouse) (brain; [14]): 127.000 fold
KTINGSGSPHSKAQIGHT | 57.769 fold | 0.024 fold | 0.000 fold | 0.154 fold | 0.281 fold | 0.000 fold | 99.262 fold | – | – | – | – | – | – | – | –
KTINGSGSPHSKAQIGMT | 59.013 fold | 0.081 fold | 106.528 fold | 0.248 fold | 1.003 fold | 0.000 fold | 134.585 fold | – | – | – | – | – | – | – | –
KTINGSGSPHSKAQIPPT | – | – | – | – | – | – | – | 0.000 fold | 61.258 fold | 0.000 fold | 0.115 fold | 0.758 fold | 0.000 fold | 87.661 fold | –
KTINGSGSPHSKAQKFET | – | – | – | – | – | – | – | 0.000 fold | 75.788 fold | 0.000 fold | 0.093 fold | 0.108 fold | 0.028 fold | 65.588 fold | Fold Enrichment relative to AAV9, Brain (NHP) [1, 3]: 75.788 fold; Fold Enrichment relative to AAV9, DRG (NHP) ([1]; NGS fold-enrichment, NHP DRG): 0.000 fold; Fold Enrichment relative to AAV9, Heart (NHP) ([1]; NGS fold-enrichment, NHP heart): 0.000 fold; Fold Enrichment relative to AAV9, Liver DNA (NHP) [1, 5]: 0.093 fold; Fold Enrichment relative to AAV9, Liver RNA (NHP) [1, 6]: 0.108 fold; Fold Enrichment relative to AAV9, Muscle (NHP) [1, 7]: 0.028 fold; Fold Enrichment relative to AAV9, Brain (Mouse) (brain; [14]): 65.588 fold
KTINGSGSPHSKAQKIST | 50.285 fold | 0.000 fold | 0.000 fold | 0.302 fold | 0.108 fold | 0.088 fold | 51.115 fold | – | – | – | – | – | – | – | –
